Test results: patent US20250302815A1, “PROTEIN TYROSINE PHOSPHATASE TARGETING LIGANDS” (CALICO LIFE SCIENCES LLC, priority 2021, published 2025)

What was measured:
[1] = molecular target: T1, PTPN2 (HiBIT-PTPN2 in 293T.109 cells) (Homo sapiens, UniProt P17706); assay: HiBiT Degradation 293T.109 PTPN2 (Nano-Glo HiBiT Lytic Assay); format: cell-based; conditions: 24.0 hours
T1 construct: expressed in transfected cells; host or cells: 293T.109 (293T WT from ATCC)
T1 sequence (P17706 1-415): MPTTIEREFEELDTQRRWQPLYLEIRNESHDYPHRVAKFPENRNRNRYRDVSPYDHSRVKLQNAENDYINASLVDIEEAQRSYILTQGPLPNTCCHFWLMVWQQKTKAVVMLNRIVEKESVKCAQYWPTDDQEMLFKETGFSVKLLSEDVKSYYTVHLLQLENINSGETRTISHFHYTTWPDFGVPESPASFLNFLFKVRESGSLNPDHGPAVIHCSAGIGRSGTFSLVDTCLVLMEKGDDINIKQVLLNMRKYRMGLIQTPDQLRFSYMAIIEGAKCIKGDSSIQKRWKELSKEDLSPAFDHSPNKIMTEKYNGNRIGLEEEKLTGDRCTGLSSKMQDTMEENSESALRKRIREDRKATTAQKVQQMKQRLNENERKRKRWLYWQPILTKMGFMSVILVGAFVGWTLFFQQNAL
In short: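 Degradation read-out: lytic HiBiT luminescence after 24 h treatment (37 °C, 5% CO2) of 5000 293T cells per well expressing HiBiT-fused PTPN2 from an N-terminal tag. Dosing was 11 points, half-log steps down from 10 μM, in duplicate; vehicle-treated and no-reagent wells served as controls.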

PTPN2 (B16F10.4 cells) = molecular target: T2, PTPN2 (B16F10.4 cells) (Mus musculus, UniProt Q06180); assay: HiBiT Degradation B16F10.4 PTPN2; format: cell-based; conditions: 24.0 hours
T2 construct: HiBiT; host or cells: B16F10.4
T2 sequence (Q06180 1-406): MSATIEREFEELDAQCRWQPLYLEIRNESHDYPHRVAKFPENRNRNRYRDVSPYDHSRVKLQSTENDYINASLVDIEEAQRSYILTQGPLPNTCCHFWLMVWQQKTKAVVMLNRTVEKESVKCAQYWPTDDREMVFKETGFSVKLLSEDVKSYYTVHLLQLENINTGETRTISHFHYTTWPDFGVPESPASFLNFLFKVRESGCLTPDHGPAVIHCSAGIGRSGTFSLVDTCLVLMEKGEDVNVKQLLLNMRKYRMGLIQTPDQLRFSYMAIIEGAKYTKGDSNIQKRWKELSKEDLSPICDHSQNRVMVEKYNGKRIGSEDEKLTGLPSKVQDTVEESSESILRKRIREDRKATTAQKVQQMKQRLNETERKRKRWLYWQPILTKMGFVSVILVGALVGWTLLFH

| SMILES | DC50 [1] [nM] | DC50 (PTPN2 (B16F10.4 cells)) [nM] |
| --- | --- | --- |
| CC1(C)CC(Nc2cccc(-c3sc(C(=O)O)c(OCC(=O)O)c3Cl)c2F)CCN1S(=O)(=O)Cc1ccc(F)c(NC(=O)C2CN(C(=O)CNc3cccc4c3CN(C3CCC(=O)NC3=O)C4=O)C2)c1 (stereo not drawn) [Example 146, 3-(carboxymethoxy)-4-chloro-5-[3-[[1-[[3-[[1-[2-[[2-(2,6-dioxo-3-piperidyl)-1-oxo-isoindolin-4-yl]amino]acetyl]azetidine-3-carbonyl]amino]-4-fluoro-phenyl]methylsulfonyl]-2,2-dimethyl-4-piperidyl]amino]-2-fluoro-phenyl]thiophene-2-carboxylic acid] | < 50 | 200 to 1000 |
| Cn1c(=O)n(C2CCC(=O)NC2=O)c2ccc(C3CCN(C(=O)Nc4cccc(CS(=O)(=O)N5CC[C@H](Nc6cccc(-c7sc(C(=O)O)c(OCC(=O)O)c7Cl)c6)CC5(C)C)c4)CC3(F)F)cc21 (stereo partly drawn) [Example 147, 3-(carboxymethoxy)-4-chloro-5-[3-[[(4S)-1-[[3-[[4-[1-(2,6-dioxo-3-piperidyl)-3-methyl-2-oxo-benzimidazol-5-yl]-3,3-difluoro-piperidine-1-carbonyl]amino]phenyl]methylsulfonyl]-2,2-dimethyl-4-piperidyl]amino]phenyl]thiophene-2-carboxylic acid] | < 50 | < 50 |
| CC1(C)C[C@@H](Nc2cccc(-c3sc(C(=O)O)c(OCC(=O)O)c3Cl)c2F)CCN1S(=O)(=O)Cc1ccc(F)c(NC(=O)C2CN(C(=O)CNc3cccc4c3CN(C3CCC(=O)NC3=O)C4=O)C2)c1 (stereo partly drawn) [Example 148, 3-(carboxymethoxy)-4-chloro-5-[3-[[(4S)-1-[[3-[[1-[2-[[2-(2,6-dioxo-3-piperidyl)-1-oxo-isoindolin-4-yl]amino]acetyl]azetidine-3-carbonyl]amino]-4-fluoro-phenyl]methylsulfonyl]-2,2-dimethyl-4-piperidyl]amino]-2-fluoro-phenyl]thiophene-2-carboxylic acid] | < 50 | 50 to 200 |
| CC1(C)C[C@H](Nc2cccc(-c3sc(C(=O)O)c(OCC(=O)O)c3Cl)c2F)CCN1S(=O)(=O)Cc1ccc(F)c(NC(=O)C2CN(C(=O)CNc3cccc4c3CN(C3CCC(=O)NC3=O)C4=O)C2)c1 (stereo partly drawn) [Example 149] | 50 to 200 | ≥ 1000 |
| CC1(C)C[C@@H](Nc2cccc(-c3sc(C(=O)O)c(OCC(=O)O)c3Cl)c2)CCN1S(=O)(=O)Cc1cccc(NC(=O)N2CCC(c3ccc4c(c3)C3(CC3)C(=O)N4C3CCC(=O)NC3=O)CC2)c1 (stereo partly drawn) [Example 150] | 50 to 200 | 50 to 200 |
| Cn1c(=O)n(C2CCC(=O)NC2=O)c2cccc(OC3CCN(C(=O)Nc4cccc(CS(=O)(=O)N5CC[C@H](Nc6cccc(-c7sc(C(=O)O)c(OCC(=O)O)c7Cl)c6)CC5(C)C)c4)CC3)c21 (stereo partly drawn) [Example 151] | 200 to 1000 | 200 to 1000 |
| Cn1c(=O)n(C2CCC(=O)NC2=O)c2ccc(C3CCN(C(=O)Nc4cccc(CS(=O)(=O)N5CC[C@H](Nc6cccc(-c7sc(C(=O)O)c(OCC(=O)O)c7Cl)c6)CC5(C)C)c4)CC3)c(F)c21 (stereo partly drawn) [Example 152, 3-(carboxymethoxy)-4-chloro-5-[3-[[(4S)-1-[[3-[[4-[1-(2,6-dioxo-3-piperidyl)-4-fluoro-3-methyl-2-oxo-benzimidazol-5-yl]piperidine-1-carbonyl]amino]phenyl]methylsulfonyl]-2,2-dimethyl-4-piperidyl]amino]phenyl]thiophene-2-carboxylic acid] | 50 to 200 | 50 to 200 |
| Cn1c(=O)n(C2CCC(=O)NC2=O)c2cc(F)c(C3CCN(C(=O)Nc4cccc(CS(=O)(=O)N5CC[C@H](Nc6cccc(-c7sc(C(=O)O)c(OCC(=O)O)c7Cl)c6)CC5(C)C)c4)CC3)cc21 (stereo partly drawn) [Example 153, 3-(carboxymethoxy)-4-chloro-5-[3-[[(4S)-1-[[3-[[4-[1-(2,6-dioxo-3-piperidyl)-6-fluoro-3-methyl-2-oxo-benzimidazol-5-yl]piperidine-1-carbonyl]amino]phenyl]methylsulfonyl]-2,2-dimethyl-4-piperidyl]amino]phenyl]thiophene-2-carboxylic acid] | 50 to 200 | 200 to 1000 |
| CC1(C)C[C@@H](Nc2cccc(-c3sc(C(=O)O)c(OCC(=O)O)c3Cl)c2)CCN1S(=O)(=O)Cc1cccc(NC(=O)N2CCC(c3ccc4c(c3)n(C3CC3)c(=O)n4C3CCC(=O)NC3=O)CC2)c1 (stereo partly drawn) [Example 154, 3-(carboxymethoxy)-4-chloro-5-[3-[[(4S)-1-[[3-[[4-[3-cyclopropyl-1-(2,6-dioxo-3-piperidyl)-2-oxo-benzimidazol-S-yl]piperidine-1-carbonyl]amino]phenyl]methylsulfonyl]-2,2-dimethyl-4-piperidyl]amino]phenyl]thiophene-2-carboxylic acid] | 50 to 200 | 50 to 200 |
| CC1(C)C[C@@H](Nc2cccc(-c3sc(C(=O)O)c(OCC(=O)O)c3Cl)c2)CCN1S(=O)(=O)Cc1cccc(NC(=O)N2CCC(c3ccc4c(c3)n(CC(F)(F)F)c(=O)n4C3CCC(=O)NC3=O)CC2)c1 (stereo partly drawn) [Example 155, 3-(carboxymethoxy)-4-chloro-5-[3-[[(4S)-1-[[3-[[4-[1-(2,6-dioxo-3-piperidyl)-2-oxo-3-(2,2,2-trifluoroethyl)benzimidazol-5-yl]piperidine-1-carbonyl]amino]phenyl]-methylsulfonyl]-2,2-dimethyl-4-piperidyl]amino]phenyl]thiophene-2-carboxylic acid] | 50 to 200 | 50 to 200 |
| CC1(C)C[C@@H](Nc2cccc(-c3sc(C(=O)O)c(OCC(=O)O)c3Cl)c2)CCN1S(=O)(=O)Cc1cccc(NC(=O)NCCCc2ccc3c4c(cccc24)C(=O)N3C2CCC(=O)NC2=O)c1 (stereo partly drawn) [Example 156, 3-(carboxymethoxy)-4-chloro-5-(3-(((4S)-1-((3-(3-(3-(1-(2,6-dioxopiperidin-3-yl)-2-oxo-1,2-dihydrobenzo[cd]indol-6-yl)propyl)ureido)benzyl)sulfonyl)-2,2-dimethylpiperidin-4-yl)amino)phenyl)thiophene-2-carboxylic acid] | < 50 | < 50 |
| Cn1nc(C2CCC(=O)NC2=O)c2ccc(CCC(=O)Nc3cccc(CS(=O)(=O)N4CCC(Nc5cccc(-c6sc(C(=O)O)c(OCC(=O)O)c6Cl)c5)CC4)c3)cc21 (stereo not drawn) [Example 157, 3-(carboxymethoxy)-4-chloro-5-[3-[[1-[[3-[3-[3-(2,6-dioxo-3-piperidyl)-1-methyl-indazol-6-yl]propanoylamino]phenyl]methylsulfonyl]-4-piperidyl]amino]phenyl]thiophene-2-carboxylic acid] | 200 to 1000 | 200 to 1000 |
| CC1(C)C[C@@H](Nc2cccc(-c3sc(C(=O)O)c(OCC(=O)O)c3Cl)c2)CCN1S(=O)(=O)Cc1cccc(NC(=O)N2CCC(Cc3ccc4c5c(cccc35)C(=O)N4C3CCC(=O)NC3=O)CC2)c1 (stereo partly drawn) [Example 158, 3-(carboxymethoxy)-4-chloro-5-(3-(((4S)-1-((3-(4-((1-(2,6-dioxopiperidin-3-yl)-2-oxo-1,2-dihydrobenzo[cd]indol-6-yl)methyl)piperidine-1-carboxamido)benzyl)sulfonyl)-2,2-dimethylpiperidin-4-yl)amino)phenyl)thiophene-2-carboxylic acid] | 50 to 200 | < 50 |
| CC1(C)C[C@@H](Nc2cccc(-c3sc(C(=O)O)c(OCC(=O)O)c3Cl)c2)CCN1S(=O)(=O)Cc1cccc(NC(=O)N2CCC(c3ccc4c(c3)n(C3CCOCC3)c(=O)n4C3CCC(=O)NC3=O)CC2)c1 (stereo partly drawn) [Example 159, 3-(carboxymethoxy)-4-chloro-5-(3-(((4S)-1-((3-(4-(1-(2,6-dioxopiperidin-3-yl)-2-oxo-3-(tetrahydro-2H-pyran-4-yl)-2,3-dihydro-1H-benzo[d]imidazol-5-yl)piperidine-1-carboxamido)benzyl)sulfonyl)-2,2-dimethylpiperidin-4-yl)amino)phenyl)thiophene-2-carboxylic acid] | 200 to 1000 | 200 to 1000 |
| COCCn1c(=O)n(C2CCC(=O)NC2=O)c2ccc(C3CCN(C(=O)Nc4cccc(CS(=O)(=O)N5CC[C@H](Nc6cccc(-c7sc(C(=O)O)c(OCC(=O)O)c7Cl)c6)CC5(C)C)c4)CC3)cc21 (stereo partly drawn) [Example 160, 3-(carboxymethoxy)-4-chloro-5-(3-(((4S)-1-((3-(4-(1-(2,6-dioxopiperidin-3-yl)-3-(2-methoxyethyl)-2-oxo-2,3-dihydro-1H-benzo[d]imidazol-5-yl)piperidine-1-carboxamido)benzyl)sulfonyl)-2,2-dimethylpiperidin-4-yl)amino)phenyl)thiophene-2-carboxylic acid] | 50 to 200 | 50 to 200 |
